Values joined by “and” are separate entries in the source; they are usually repeats but may differ in a detail not shown here. Equal values may be shown once.
Tested on: placental gene expression
Test: Placental gene expression (Affymetrix Rat Genome Chip 230.2) after SSRI (fluoxetine) exposure throughout gestation
Assay type: in vivo
Experimental: Gene expression data from pregnant rats under different forms of dietary restriction was gathered. […] (N=8) • Group 2 (CR50): Rats Given 50% of their Normal Daily Intake of Food. (N=5) • Group 3 (CR70): Rats Given 70% of their Normal Daily Intake of Food. […] (N=6) Placentas from the rats of each Group were harvested on Day 21 of gestation. RNA was extracted and gene expression was measured based on hybridization of RNA to Affymetrix Rat Genome Chips™ (230.2) (Affymetrix, Santa Clara, Calif.).
In order to determine whether placental gene expression profiling can be used to identify other prenatal exposures such as toxicants and drugs, a group of rats with drug exposure was monitored as described above. […] As with control, CR50, CR70, and HF groups, placentas from the mothers were sampled after 21 days of gestation and gene expression monitored utilizing an Affymetrix Rat Genome Chip.

[1] = placenta, SSRI exposure during gestation, each SSRI column = one sample

CNCCC(Oc1ccc(C(F)(F)F)cc1)c1ccccc1 (centres unmarked) [fluoxetine, Fluoxetine]
Probeset 1391509_at expression (SSRI exposure during gestation): 8.436 and 8.44 and 8.929 and 8.687 and 8.508 and 8.574 | Probeset 1391678_at expression (SSRI exposure during gestation): 7.246 and 7.316 and 7.365 and 7.475 and 7.387 and 7.426 | Probeset 1391962_at expression (SSRI exposure during gestation): 3.906 and 3.859 and 3.835 and 3.838 and 3.857 and 3.918 | Probeset 1392950_at expression (SSRI exposure during gestation): 3.887 and 3.884 and 3.809 and 3.812 and 3.82 and 3.885 | Probeset 1393104_at expression (SSRI exposure during gestation): 5.976 | Probeset 1393428_at expression (SSRI exposure during gestation): 6.023 and 6.1025 and 6.34 and 6.137 and 6.165 and 5.935 | Probeset 1393438_at expression (SSRI exposure during gestation): 5.322 and 5.381 and 5.359 and 5.376 and 5.366 and 5.287 | Probeset 1393539_at expression (SSRI exposure during gestation): 5.342 and 5.53 and 5.247 and 5.255 and 5.363 and 5.602 | Probeset 1393939_at expression (SSRI exposure during gestation): 4.456 and 4.322 and 4.388 and 4.385 and 4.239 and 4.386 | Probeset 1393989_at expression (SSRI exposure during gestation): 7.171 and 6.991 and 7.091 and 6.963 and 7.057 and 6.799 | Probeset 1394343_s_at expression (SSRI exposure during gestation): 3.578 and 3.612 and 3.498 and 3.586 and 3.588 and 3.604 | Probeset 1394383_at expression (SSRI exposure during gestation): 6.226 and 6.542 and 6.277 and 5.892 and 6.155 and 6.124 | Probeset 1394790_at expression (SSRI exposure during gestation): 6.517 and 6.383 and 6.546 and 6.377 and 6.521 and 6.433 | Probeset 1394887_x_at expression (SSRI exposure during gestation): 4.369 and 4.298 and 4.253 and 4.258 and 4.269 and 4.251 | Probeset 1395316_at expression (SSRI exposure during gestation): 7.327 and 7.192 and 7.672 and 7.075 and 7.225 and 7.176 | Probeset 1396130_at expression (SSRI exposure during gestation): 3.997 and 4.12 and 3.89 and 3.815 and 3.974 and 3.921 | Probeset 1397268_at expression (SSRI exposure during gestation): 5.157 and 5.261 and 5.068 and 4.99 and 5.173 and 4.92 | Probeset 1397587_at expression (SSRI exposure during gestation): 7.542 and 7.104 and 7.072 and 7.17 and 7.225 and 6.496 | Probeset 1397676_at expression (SSRI exposure during gestation): 4.933 and 5.266 and 5.715 and 5.112 and 5.274 and 5.346 | Probeset 1397934_at expression (SSRI exposure during gestation): 8.299 and 8.221 and 8.122 and 8.187 (2×) and 8.222 | Probeset 1397956_at expression (SSRI exposure during gestation): 6.013 and 6.031 and 6.26 and 5.9 and 5.674 and 6.039 | Probeset 1398025_at expression (SSRI exposure during gestation): 7.379 and 7.277 and 7.364 and 7.102 and 7.172 and 7.095 | Probeset 1398136_at expression (SSRI exposure during gestation): 4.109 and 4.099 and 4.035 and 4.047 and 4.062 and 4.154 | Probeset 1398208_s_at expression (SSRI exposure during gestation): 6.851 and 6.897 and 7.112 and 6.972 and 6.892 and 7.056 | Probeset 1398486_at expression (SSRI exposure during gestation): 4.355 and 4.744 and 5.032 and 4.741 and 4.49 and 5.709 | Probeset 1398949_at expression (SSRI exposure during gestation): 8.606 and 8.576 and 8.664 and 8.941 and 8.595 and 8.818 | Probeset 1399108_at expression (SSRI exposure during gestation): 7.198 and 7.34 and 7.479 and 7.32 and 7.149 and 7.206 | Probeset 1368198_at expression value [1]: 5.473 and 5.314 and 5.48 and 5.486 | Probeset 1368824_at expression value [1]: 10.44 and 10.31 and 10.75 and 10.8577 and 10.39 and 10.8 | Probeset 1369775_at expression value [1]: 9.454 and 9.493 and 9.497 and 9.711 and 9.436 and 9.608 | Probeset 1370317_at expression value [1]: 8.582 and 8.538 and 9.288 and 9.274 and 9.399 and 9.017 | Probeset 1370918_a_at expression value [1]: 11.48 and 11.57 and 11.99 and 11.82 and 11.71 and 11.77 | Probeset 1371174_s_at expression value [1]: 5.805 and 5.865 and 5.868 | Probeset 1373572_at expression value [1]: 8.281 and 8.071 and 8.726 and 8.553 and 8.626 and 8.452 | Probeset 1373647_at expression value [1]: 8.537 and 8.662 and 9.067 and 8.963 and 8.812 and 8.988 | Probeset 1375178_at expression value [1]: 5.304 and 5.523 and 5.583 and 5.437 and 5.444 and 5.62 | Probeset 1376622_at expression value [1]: 8.516 and 8.814 and 8.398 and 8.068 and 8.494 and 8.379 | Probeset 1376661_at expression value [1]: 8.407 and 8.641 and 7.86 and 7.94 and 7.632 and 8.114 | Probeset 1377365_at expression value [1]: 5.846 and 5.083 and 5.532 and 6.127 and 5.643 and 5.687 | Probeset 1378200_at expression value [1]: 3.755 and 3.651 and 3.848 and 3.847 and 4.036 and 3.882 | Probeset 1378906_at expression value [1]: 3.9529 and 3.997 and 3.87 and 3.96 and 3.996 and 3.763 | Probeset 1379691_at expression value [1]: 5.812 and 5.91 and 6.656 and 6.738 and 5.925 and 6.573 | Probeset 1379822_at expression value [1]: 4.961 and 4.831 and 5.299 and 4.848 and 5.227 and 5.084 | Probeset 1380175_at expression value [1]: 4.934 and 4.975 and 4.85 and 4.93 and 4.966 and 4.859 | Probeset 1381456_at expression value [1]: 5.822 and 5.673 and 5.76 and 5.587 and 5.629 and 5.737 | Probeset 1381492_at expression value [1]: 3.536 and 3.464 and 3.556 and 3.687 and 3.747 and 3.65 | Probeset 1382156_at expression value [1]: 4.178 and 4.6 and 4.28 and 4.232 and 4.706 and 4.384 | Probeset 1382670_at expression value [1]: 8.21 and 8.049 and 7.137 and 7.314 and 7.643 and 7.446 | Probeset 1383054_at expression value [1]: 9.672 and 9.605 and 9.479 and 9.484 and 9.46 and 9.528 | Probeset 1383329_at expression value [1]: 5.299 and 5.567 and 5.281 (2×) and 5.561 and 5.339 | Probeset 1384137_at expression value [1]: 3.89 and 3.899 | Probeset 1384367_at expression value [1]: 5.152 and 5.5769 and 5.098 and 5.103 and 5.137 and 5.449 | Probeset 1384573_at expression value [1]: 9.396 and 9.335 and 9.669 and 9.82 and 10.3 and 9.808 | Probeset 1385074_at expression value [1]: 6.094 and 5.703 and 6.069 and 5.946 and 6.214 and 6.404 | Probeset 1385290_at expression value [1]: 5.664 (2×) and 5.339 and 5.511 and 5.599 and 5.438 | Probeset 1385386_at expression value [1]: 4.05 and 4.2 and 4.368 and 4.404 and 4.111 and 4.351 | Probeset 1385391_at expression value [1]: 5.218 and 4.757 and 4.618 | Probeset 1385790_at expression value [1]: 8.262 and 8.645 and 8.217 and 8.093 and 8.254 and 8.458 | Probeset 1387693_a_at expression value [1]: 4.775 and 5.713 and 5.222 and 5.079 and 4.944 and 5.129 | Probeset 1387694_at expression value [1]: 5.039 and 4.874 and 4.919 and 4.933 and 5.073 and 4.691 | Probeset 1387822_at expression value [1]: 5.838 and 6.319 and 5.874 and 5.79 and 5.5082 and 5.909 | Probeset 1387836_at expression value [1]: 6.664 and 6.515 and 7.321 and 7.12 and 6.632 and 6.906 | Probeset 1387914_at expression value [1]: 7.456 and 7.375 and 7.641 and 7.405 and 7.42 and 7.231 | Probeset 1388131_at expression value [1]: 5.482 and 5.724 and 5.628 and 5.313 and 5.378 and 5.32 | Probeset 1388363_at expression value [1]: 8.48 and 8.558 and 9.033 and 9.198 and 8.642 and 9.018 | Probeset 1388669_at expression value [1]: 7.943 and 7.729 and 8.56 and 8.668 and 8.519 and 8.408 | Probeset 1389213_at expression value [1]: 7.554 and 7.674 and 7.18 and 7.082 and 7.285 and 7.531 | Probeset 1389599_at expression value [1]: 6.535 and 6.776 and 5.918 and 6.015 and 6.327 and 6.205 | Probeset 1390406_at expression value [1]: 10.62 (2×) and 11.01 and 10.93 and 11.3 and 11.1 | Probeset 1390477_at expression value [1]: 5.088 and 5.213 and 4.637 and 4.864 and 4.99 and 4.712 | Probeset 1390592_at expression value [1]: 9.083 and 9.085 and 9.028 and 9.301 | Probeset 1391283_at expression value [1]: 5.168 and 5.671 and 5.216 and 5.355 and 5.486 and 5.461 | Probeset 1391509_at expression value [1]: 7.81 and 8.329 and 7.825 and 7.918 and 8.117 and 8.184 | Probeset 1391678_at expression value [1]: 6.728 and 7.03 and 6.037 and 5.684 and 5.954 and 6.264 | Probeset 1391962_at expression value [1]: 4.079 and 4.011 and 3.937 and 4.018 and 4.024 and 3.918 | Probeset 1393428_at expression value [1]: 6.698 and 6.377 and 7.114 and 7.29 and 7.299 and 6.755 | Probeset 1393438_at expression value [1]: 5.068 and 5.185 and 5.0534 and 5.206 and 4.959 and 5.153 | Probeset 1394343_s_at expression value [1]: 3.666 and 3.629 and 3.872 and 3.785 and 3.852 and 3.841 | Probeset 1394383_at expression value [1]: 5.713 and 6.062 and 5.324 and 5.199 and 5.6 and 5.247 | Probeset 1394887_x_at expression value [1]: 4.063 and 4.143 and 3.656 and 3.536 and 3.475 and 3.919 | Probeset 1395817_at expression value [1]: 6.714 and 6.49 and 6.649 | Probeset 1396130_at expression value [1]: 3.756 and 3.764 and 3.744 and 3.847 and 3.746 and 3.741 | Probeset 1397268_at expression value [1]: 4.565 and 5.072 and 4.482 and 4.73 and 4.645 and 4.567 | Probeset 1397587_at expression value [1]: 6.561 and 6.659 and 6.326 and 6.196 and 6.181 and 6.179 | Probeset 1397934_at expression value [1]: 8.072 and 8.118 and 7.76 and 7.912 and 7.673 and 7.856 | Probeset 1398136_at expression value [1]: 4.139 and 4.205 and 4.178 and 4.175 and 4.278 and 4.212 | Probeset 1398486_at expression value [1]: 5.62 and 5.739 and 6.477 and 7.05 and 7.673 and 6.597 | Probeset 1398949_at expression value [1]: 9.031 and 8.874 and 9.095 and 9.297 and 9.003 and 9.17 | expression, probeset 368199_at (placenta, SSRI-exposed samples): 8.586 and 8.944 and 9.045 and 9.265 and 9.277 and 9.377 | expression, probeset 1367489_at (placenta, SSRI-exposed samples): 7.839 and 8.052 and 7.771 and 7.614 and 7.86 and 7.738 | expression, probeset 1367856_at (placenta, SSRI-exposed samples): 9.745 and 9.797 and 10.22 and 10.51 and 10.38 and 10.14 | expression, probeset 1367866_at (placenta, SSRI-exposed samples): 5.591 and 5.571 | expression, probeset 1367877_at (placenta, SSRI-exposed samples): 9.4471 and 9.923 and 9.622 and 8.883 and 9.902 and 8.73 | expression, probeset 1367978_at (placenta, SSRI-exposed samples): 5.914 and 6.324 and 5.574 and 5.778 and 5.944 and 5.842 | expression, probeset 1368083_at (placenta, SSRI-exposed samples): 8.501 and 8.375 and 9.053 and 8.928 and 9.103 and 8.728 | expression, probeset 1368397_at (placenta, SSRI-exposed samples): 3.806 and 3.897 and 3.87 and 3.843 and 3.78 and 3.762 | expression, probeset 1368542_at (placenta, SSRI-exposed samples): 6.355 and 7.586 and 6.712 and 6.347 and 6.563 and 7.001 | expression, probeset 1368646_at (placenta, SSRI-exposed samples): 5.644 and 5.882 and 5.515 and 5.483 and 5.352 and 5.292

From US20090087845A1, “Genetic Markers Of True Low Birth Weight” (priority 2005, published 2009)
